According to US20240188561A1, “ADDITIVES FOR ENHANCING THE PESTICIDAL EFFECTIVENESS OF PESTICIDAL MICROORGANISMS” (priority 2021, published 2024):

Assays:
[1] = tested on: Pseudomonas fluorescens; assay: Additive compatibility with microbial growth (growth slope by OD 620 nm); assay type: cell-based; details: additive 0.01-5 %, exposed 4 hours at 16° C., then tryptic soy broth 30° C., slope compared to 0% sample
[2] = tested on: Bacillus subtilis; assay: as above; assay type: cell-based; details: additive 0.01-5 %, exposed 4 hours at 16° C., then tryptic soy broth 30° C., slope compared to 0% sample
[3] = tested on: Bacillus firmus; assay: as above; assay type: cell-based; details: additive 0.01-5 %, exposed 4 hours at 16° C., then tryptic soy broth 30° C., slope compared to 0% sample
[4] = tested on: Bacillus amyloliquefaciens; assay: as above; assay type: cell-based; details: additive 0.01-5 %, exposed 4 hours at 16° C., then tryptic soy broth 30° C., slope compared to 0% sample
[5] = tested on: Powdery Mildew (Podosphaera xanthii); assay: Spray trial on pumpkin plants, Powdery Mildew infection; assay type: in vivo; details: in words
Method: Eight solutions were prepared as described in Table 5a. These solutions were sprayed on pumpkin plants showing no signs of Powdery Mildew (Podosphaera xanthii). […] Six of the solutions included methyl soyate.
Four applications were made over a month to the same pumpkin plants. At the end of the month, the infection rates of Powdery Mildew were evaluated by comparing to untreated pumpkin plants.

Compound	Influence of additive on microbial growth slope (compatibility), Pseudomonas fluorescens [1]	Influence of additive on microbial growth slope (compatibility), Bacillus subtilis [2]	Influence of additive on microbial growth slope (compatibility), Bacillus firmus [3]	Influence of additive on microbial growth slope (compatibility), Bacillus amyloliquefaciens [4]	Control of Powdery Mildew (lower %-Infection) when additive was added to Serifel Biofungicide spray solutions [5]
Butyl alcohol POP 31 POE 31 [vii-7]	N	N	N	N	
PEG 400 monooleate [v-2]	S	N		N	
Olleyl-Cetyl alcohol (90% Oleyl) [xvi-3]	S	S	S	S	
Soybean Oil POE 30 [vi-2]	N	S	N	S	
C8-C10 dimethyl amide [xv-2]	S	S	S	S	
2-propylheptanol POE 5 [xi-3]	S	S	S	S	
Castor Oil POE 40 [vi-4]		N	N	N	
CCCCCCCC/C=C\CCCCCCCC(=O)OC [ii-4, Oleic acid methyl ester]	N	N	N	E (E represents an Enhancing result)	
C12-C16 alkylpolyglycoside [iv-2]	N	S	S	S	
2-propylheptanol Alkoxylate with 5 moles EO [xi-4]	S	S	S	S	
Olleyl-Cetyl alcohol (80% Oleyl) [xvi-2]	N	N	S	N	
C12-C18 fatty acid methyl ester [ii-2]	N	N	S	N	
Tallow amine POE15 [xiii-1]	E (E represents an Enhancing result)	S	S	S	
Tridecyl alcohol POE 10 phosphate ester [xix-1]	S	S	S	S	
Tallow amine POE20 [xiii-2]		S	S	S	
Sodium Lauryl ether sulfate [xvii-1]	S	S	S	S	
Soya fatty acid methyl ester [ii-3]	N	N	N	E (E represents an Enhancing result)	improved control
Isodecyl alcohol POE6 phosphate ester [xix-3]	S	S	S	S	

Compound	Influence of additive on microbial growth slope (compatibility), Pseudomonas fluorescens [1]	Influence of additive on microbial growth slope (compatibility), Bacillus subtilis [2]	Influence of additive on microbial growth slope (compatibility), Bacillus firmus [3]	Influence of additive on microbial growth slope (compatibility), Bacillus amyloliquefaciens [4]	Control of Powdery Mildew (lower %-Infection) when additive was added to Serifel Biofungicide spray solutions [5]
Sorbitan monooleate [xii-1]	E (E represents an Enhancing result)	S	S	S	
Soybean Oil POE 10 [vi-1]	E (E represents an Enhancing result)	N	S	N	
Tridecyl alcohol POE 3 [xi-1]	S	S	S	S	
Magnesium Oleate [xviii-1]	S	S	S		
C8-C10 alkylpolyglycoside [iv-1]	N	N	N	N	
Sorbitan trioleate POE 20 [xii-4]	S	N	S	S	
2-propylheptanol Alkoxylate with 7 moles EO [xi-5]	S	S	S	S	
C8-C10 fatty alcohol [xvi-1]	S	S	S	S	
Sorbitan monolaurate POE 20 [xii-2]	S	S	S	S	
PEG 400 monolaurate [v-1]	S	N		N	
Sodium Tallowate [xviii-2]	S				
Dibutyl Naphthalene Sulfonate, Sodium [viii-1]		E (E represents an Enhancing result)		E (E represents an Enhancing result)	
Tridecyl alcohol POE 9 [xi-2]	S	S	S	S	
CC(O)C(=O)N(C)C (stereo not shown) [xv-1, Dimethyl lactamide]	N	S	N	S	
C12-C14 dimethyl amide [xv-3]		S	S	S	
Castor Oil POE 16 [vi-3]	N	N	N	N	
Sorbitan monooleate POE 20 [xii-3]	N	N	S	N	
